Active and inactive are the calls of the source. The rule behind the calls is not given here.
These compounds were tested against Serine/threonine-protein kinase mTOR (Homo sapiens) (UniProt P42345) (assay: mTOR FRB domain ligand binding – biophysical, NMR (AID 1648)). Conditions: NMR binding to FRB domain, chemical shift.
Sequence of Serine/threonine-protein kinase mTOR (Homo sapiens) (P42345 2015-2114): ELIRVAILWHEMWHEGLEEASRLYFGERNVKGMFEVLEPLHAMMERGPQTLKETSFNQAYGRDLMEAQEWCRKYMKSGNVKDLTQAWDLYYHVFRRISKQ

| SMILES | Kd |
| --- | --- |
| Cc1noc(C)c1C(=O)Nc1ccccc1-c1ccccc1 | > 4 mM (inactive) |
| C=C[C@H]1CN2CC[C@H]1C[C@@H]2[C@@H](O)c1ccnc2ccc(OC)cc12 | > 4 mM (inactive) |
| CN1CCN(C(=O)c2ccccc2N)CC1 | > 4 mM (inactive) |
| CC(=O)NC(O)C(=O)c1cccs1 (stereo unspecified) | > 4 mM (inactive) |
| NC(=O)c1ccc(NC(=O)C2CC2)cc1 | > 4 mM (inactive) |
| OCc1sccc1-n1cccc1 | > 4 mM (inactive) |
| O=C(O)CC1C(=O)NCCN1Cc1ccccc1 (stereo unspecified) | > 4 mM (inactive) |
| CSc1ccc(C2NC(=O)CCC2[N+](=O)[O-])cc1 (stereo unspecified) | > 4 mM (inactive) |
| COc1ccc(O)c(-c2cn[nH]c2-c2cccs2)c1 | > 4 mM (inactive) |
| C=C(C)C1CC=C(CO)CC1 (stereo unspecified) | > 4 mM (inactive) |
| Cc1cccc(N2C(=O)CC(=O)NC2=O)c1 | > 4 mM (inactive) |
| O=C(O)c1ccc2ncccc2c1 | > 4 mM (inactive) |
| Cn1cnc([N+](=O)[O-])c1Sc1ncnc2nc[nH]c12 | > 4 mM (inactive) |
| O=C(O)CNC(=O)c1ccccc1Cl | > 4 mM (inactive) |
| Nc1ccccc1C(=O)N1CCNC(=O)C1 | > 4 mM (inactive) |
| O=C(O)c1ccc(Oc2ccccc2)nc1 | > 4 mM (inactive) |
| Nc1cncc(C(=O)O)c1 | > 4 mM (inactive) |
| Nc1c(C(=O)O)sc2ncccc12 | > 4 mM (inactive) |
| O=c1cnnc(NCc2ccc(F)cc2)[nH]1 | > 4 mM (inactive) |
| Cn1c(SCC(N)=O)nc2ccccc2c1=O | > 4 mM (inactive) |
| O=C(/C=C/c1ccc(O)c(O)c1)O[C@@H]1C[C@](O)(C(=O)O)C[C@@H](O)[C@H]1O | > 4 mM (inactive) |
| O=c1c(O)c(-c2ccccc2)oc2ccccc12 | > 4 mM (inactive) |
| c1ccc2c(c1)CN1CCCC1=N2 | > 4 mM (inactive) |
| CC12CCCC(O)(C1)C1CC(C)(C)C1CC2 (stereo unspecified) | > 4 mM (inactive) |

| SMILES | Kd |
| --- | --- |
| O=C(CCc1n[nH]c(=O)[nH]c1=O)NCc1ccccc1 | > 4 mM (inactive) |
| C[C@@H]1[C@H]2[C@H](O[C@@H]3O[C@H](CO)[C@@H](O)[C@H](O)[C@H]3O)OC=C(C(=O)O)[C@H]2C[C@@H]1O | > 4 mM (inactive) |
| COC(=O)C[C@@H]1C2(C)C(=O)[C@@H](CC3=C4CC(O)O[C@@H](c5ccoc5)[C@]4(C)CCC32)[C@H](O)C1(C)C (stereo partly specified) | > 4 mM (inactive) |
| Oc1ccccc1C(=S)N1CCCCCC1 | > 4 mM (inactive) |
| Cn1c(CN)nc2ccccc21 | > 4 mM (inactive) |
| O=C(O)CCC(=O)Nc1nnc(C(F)(F)F)s1 | > 4 mM (inactive) |
| COC(=O)C1CSCC1=O (stereo unspecified) | > 4 mM (inactive) |
| COc1cc(/C=C/C(=O)O)cc(OC)c1OC | > 4 mM (inactive) |
| Cc1nnsc1C(=O)Nc1cccc(S(N)(=O)=O)c1 | > 4 mM (inactive) |
| CCOC(=O)C1C(=O)C2CCN1CC2 (stereo unspecified) | > 4 mM (inactive) |
| Cc1c(N=Cc2ccc[nH]2)c(=O)n(-c2ccccc2)n1C | > 4 mM (inactive) |
| CC1(C)CC2(C)N(N)C(=O)CN2C(=S)N1 (stereo unspecified) | > 4 mM (inactive) |
| Cc1sc(N)c(C(N)=O)c1C | > 4 mM (inactive) |
| CC(=O)Nc1cccc(N(C)S(C)(=O)=O)c1 | > 4 mM (inactive) |
| CC(=O)OC[C@@]1(O)C[C@@]23CCC4c5ccoc5CC[C@]4(C)C2CC[C@@H]1C3 (stereo partly specified) | > 4 mM (inactive) |
| Cc1cccc(NC(=O)CN2C(=O)CNC2=O)c1 | > 4 mM (inactive) |
| S=C(c1cccnc1)N1CCOCC1 | > 4 mM (inactive) |
| Cc1cc2nc(SCC(=O)O)nc(C)c2cc1C | > 4 mM (inactive) |
| O=C(O)C1CSC2(CCCCC2)N1 (stereo unspecified) | > 4 mM (inactive) |
| O=C1NC(=S)NC(=O)C1=Cc1cccs1 | > 4 mM (inactive) |
| COC1=CC(=O)C=C(OC)C1=O | > 4 mM (inactive) |
| N#CCSc1nc(-c2ccccc2)cs1 | > 4 mM (inactive) |
| NC(=O)c1ccc(C(N)=O)c(-c2ccccc2)c1 | > 4 mM (inactive) |
| COc1ccc(-c2coc3c(OC)c(OC)cc(O)c3c2=O)cc1 | > 4 mM (inactive) |

| SMILES | Kd |
| --- | --- |
| O=C(NS(=O)(=O)c1ccccc1)c1ccccc1F | > 4 mM (inactive) |
| O=c1/c(=C/c2ccccc2F)sc2ncnn12 | > 4 mM (inactive) |
| CC(CC(O)C1OC1(C)C)[C@@H]1CCC2(C)C3=CCC4C(C)(C)C(=O)CCC4(C)C3CC[C@@]12C (stereo partly specified) | > 4 mM (inactive) |
| CC(=O)Nc1ccc(NC2SC(=O)NC2=O)cc1 (stereo unspecified) | > 4 mM (inactive) |
| Cc1cc(=O)[nH]c(N2CCN(Cc3ccccc3)CC2)n1 | > 4 mM (inactive) |
| Nc1cc(=O)[nH]c(SCC(=O)NCc2ccccc2)n1 | > 4 mM (inactive) |
| Cn1c(O)c(/C=C2\C=CC=N2)c(=O)[nH]c1=S | > 4 mM (inactive) |
| C=C1C2CC[C@@]3(C)[C@H](c4ccoc4)OC(=O)C[C@]13O[C@H]1CC(O)C(C)(C)C(CC(=O)OC)[C@@]21C (stereo partly specified) | > 4 mM (inactive) |
| COc1ccc(C)cc1S(=O)(=O)NC1CCCC1 | > 4 mM (inactive) |
| C=C1CCC2[C@](C)(CO)[C@H](O)CC[C@@]2(C)[C@@H]1C/C=C1/C(=O)OC[C@H]1O (stereo partly specified) | > 4 mM (inactive) |
| CCC(C)C(=O)OC1[C@@H]2CC3=C4CC(=O)O[C@@H](c5ccoc5)[C@]4(C)CCC3C(C)(C2=O)[C@@H](CC(=O)OC)C1(C)C (stereo partly specified) | > 4 mM (inactive) |
| O=C(Nc1nnc(-c2ccncc2)o1)c1cccs1 | > 4 mM (inactive) |
| CCc1cccc(C)c1NC(=O)c1cc(C)oc1C | > 4 mM (inactive) |
| CC(=O)Nc1ccc(Oc2nc(C)cc(C)n2)cc1 | > 4 mM (inactive) |
| O=S1(=O)CCC(NCc2ccccc2)C1 (stereo unspecified) | > 4 mM (inactive) |
| O=C(CSc1ncn[nH]1)c1ccc2c(c1)OCO2 | > 4 mM (inactive) |
| NC(=O)CC[C@H](N)C(=O)O | > 4 mM (inactive) |
| CC(=O)Nc1ccc(N(C)C(C)=O)cc1 | > 4 mM (inactive) |
| CC(=O)NC12CC3CC(CC(O)(C3)C1)C2 | > 4 mM (inactive) |
| CCC1C(=O)OCC1Cc1cncn1C (stereo unspecified) | > 4 mM (inactive) |
| OCC1=Cc2ccccc2OC1 | > 4 mM (inactive) |
| CCOc1ccc(Cl)cc1S(=O)(=O)N1CCCC1 | > 4 mM (inactive) |
| Cc1cc(C(=O)Nn2cnnc2)cs1 | > 4 mM (inactive) |
| S=C(c1ccc(N2CCOCC2)cc1)N1CCOCC1 | > 4 mM (inactive) |

| SMILES | Kd |
| --- | --- |
| Cc1ccc(OCC(=O)n2cnnc2N)c(C)c1 | > 4 mM (inactive) |
| CC(=O)O[C@@H]1CC2C(C)(C)[C@H](O)C=C[C@]2(C)C2CC[C@@]3(C)[C@H](c4ccoc4)OC(=O)C4OC43[C@@]21C (stereo partly specified) | > 4 mM (inactive) |
| CCC(C)C(=O)O[C@H]1[C@H](O)C2C(CN3CC(C)CCC3[C@@]2(C)O)C2C[C@]34O[C@]5(O)C(OC(=O)C(C)(O)CC)CC[C@@]3(C)C5C(OC(C)=O)[C@@H](OC(C)=O)C4[C@@]21O (stereo partly specified) | > 4 mM (inactive) |
| CCOC(=O)Cc1cc(=O)n2[nH]c(C)cc2n1 | > 4 mM (inactive) |
| CC1(C)Oc2ccc(N)cc2O1 | > 4 mM (inactive) |
| Cc1nn(C)c(C)c1NC(=S)NC1CCCC1 | > 4 mM (inactive) |
| CNC(=O)C1CC(=O)N(c2ccc(O)cc2)C1 (stereo unspecified) | > 4 mM (inactive) |
| Cc1sc2nc3n(c(=O)c2c1C)CCCS3 | > 4 mM (inactive) |
| CC1=NN(C(N)=S)C(C)(C)C1 | > 4 mM (inactive) |
| CC(N)C(=O)c1ccco1 (stereo unspecified) | > 4 mM (inactive) |
| CN(C)C(=O)CCNS(=O)(=O)c1ccccc1 | > 4 mM (inactive) |
| Cc1n[nH]c(=S)n(/N=C/c2cccs2)c1=O | > 4 mM (inactive) |
| OCC1Cc2ccccc2CN1 (stereo unspecified) | > 4 mM (inactive) |
| Nc1cc(=O)[nH]c(=S)n1CCc1ccccc1 | > 4 mM (inactive) |
| O=C1C2CCCCC2C(=O)N1c1ccc(O)cc1 (stereo unspecified) | > 4 mM (inactive) |
| NC1CS(=O)(=O)CC1O (stereo unspecified) | > 4 mM (inactive) |
| Nc1cccc(S(N)(=O)=O)c1 | > 4 mM (inactive) |
| CNC(=O)c1cc(S(=O)(=O)N(C)C)ccc1Cl | > 4 mM (inactive) |
| OC[C@@H]1CCCN2CCCC[C@H]12 | > 4 mM (inactive) |
| COc1c2c(cc3c1OCO3)C13C=C[C@H](OC)CC1N(C2)CC3O (stereo partly specified) | > 4 mM (inactive) |
| O=c1ccnc(Nc2ccccc2O)[nH]1 | > 4 mM (inactive) |
| OCC1COc2ccccc2O1 (stereo unspecified) | > 4 mM (inactive) |
| O=C(NCN1CCOCC1)c1cccnc1 | > 4 mM (inactive) |
| CCC(=O)n1nc(-c2ccco2)nc1N | > 4 mM (inactive) |

| SMILES | Kd |
| --- | --- |
| CC(=O)Nc1ccc(C(=O)NC2CCSC2=O)cc1 (stereo unspecified) | > 4 mM (inactive) |
| O=C(Nc1ccon1)c1ccc(Cl)s1 | > 4 mM (inactive) |
| O=C(O)C1=C[C@@H](O)[C@@H](O)[C@H](O)C1 | > 4 mM (inactive) |
| CC1O[C@@H](Oc2c(-c3ccc(O)c(O)c3)oc3cc(O)cc(O)c3c2=O)[C@H](O)[C@H](O)[C@H]1O (stereo partly specified) | > 4 mM (inactive) |
| Cc1cc(C(=O)Nc2ccc3c(c2)OCO3)cs1 | > 4 mM (inactive) |
| COc1ccc(Cl)cc1-c1nc(-c2ccncc2)no1 | > 4 mM (inactive) |
| COc1ccc(N2CC(=O)NC2=O)cc1 | > 4 mM (inactive) |
| COc1ccc(-c2cc(=O)c3c(OC)c(OC)c(OC)c(OC)c3o2)cc1OC | > 4 mM (inactive) |
| O=C(O)c1ccc(NCc2cccnc2)cc1 | > 4 mM (inactive) |
| Cc1cc(SCC(=O)c2ccccc2)nc(=O)[nH]1 | > 4 mM (inactive) |
| CC(=O)Nc1nnc(-c2ccccc2S(C)(=O)=O)o1 | > 4 mM (inactive) |
| O=C(Nc1cccnc1)Nc1ccc2c(c1)OCO2 | > 4 mM (inactive) |
| Cc1nn(-c2ccccc2)nc1C(=O)O | > 4 mM (inactive) |
| COc1ccccc1NC(=O)c1cc[n+]([O-])cc1 | > 4 mM (inactive) |
| N=c1c2c3c(sc2ncn1N)CCCC3 | > 4 mM (inactive) |
| CSc1ncc(CO)n1Cc1ccccc1 | > 4 mM (inactive) |
| NC(N)=NCCCCN=C(N)N | > 4 mM (inactive) |
| Cc1nc(-c2ccccc2)sc1C(N)=O | > 4 mM (inactive) |
| C[C@@H]1CCC2[C@](C)(CO)[C@@H](O)CC[C@]2(C)[C@@]12CC[C@@](CO)(CCO)O2 (stereo partly specified) | > 4 mM (inactive) |
| O=C(NCc1ccco1)c1ccc(=O)[nH]c1 | > 4 mM (inactive) |
